# Source: patent publication US6706509B2, “Oncoprotein protein kinase” (The Regents of the University of California, priority 1993, dated 2004)
# Test system: jun-D
# Experiment: Northern blot of jun-D expression in Jurkat cells
# Format: cell-based, human
# Details: CsA 100 ng/ml, 40 minutes
# Experimental: Exponentially growing Jurkat cells (10^6/ml) grown in complete RPMI medium was pretreated with CsA for 15 minutes when applicable, then subjected to various treatments for another 40 minutes. Total cytoplasmic RNA was extracted as previously described (Angel, et al., Cell, 49:729-739, 1987). 10 μg RNA was denatured by incubating with glyoxal for 60 minutes at 55° C. and fractionated on a 1% agarose gel in phosphate buffer. The fractionated RNA was blotted to Zetabind Nylon membrane (CUNO Labs) and hybridized to ^32P-labelled cDNA probes specific for c-jun, jun-B, jun-D, c-fos, α-tubulin and IL-2.
# During the first stage of T lymphocyte activation, early response genes are rapidly included (Crabtree, Science, 243:355,361, 1989; Zipfel, et al., Mol Cell Bio., 9:1041-1048, 1989). Induction of jun and fos genes during activation of the Jurkat T cell line was investigated. […] After fractionation of 10 μg samples on an agarose gel and transfer to nylon membrane, the level of c-jun, jun-B, jun-D, c-fos and α-tubulin expression was determined by hybridization to random primed cDNA probes.
substance,measurement,value
cyclosporin A [CsA],effect on potentiation of jun-D expression by TPA+A23187,not inhibited
